Reference: patent US10597388B2, “Pyridazinone herbicides” (FMC CORPORATION, priority 2014, dated 2020)

How the values were obtained:
Format in all cases: in vivo
[1] = system: buckwheat, wild (wild buckwheat, Polygonum convolvulus); assay: Test D controlled growth environment herbicide test, pre- and postemergence
Excerpt: Seeds of plant species selected from bluegrass (annual bluegrass, Poa annua), blackgrass (Alopecurus myosuroides), Canada thistle (Cirsium arvense), canarygrass (Phalaris minor), chickweed (common chickweed, Stellaria media), geranium, cutleaf (cutleaf geranium, Geranium dissectum), galium (catchweed bedstraw, Galium aparine), bromegrass, downy (downy bromegrass, Bromus tectorum), field poppy (Papaver rhoeas), field violet (Viola arvensis), foxtail, green (green foxtail, Setaria viridis), deadnettle (henbit deadnettle, Lamium amplexicaule), ryegrass, Italian (Italian ryegrass, Lolium multiflorum), kochia (Kochia scoparia), lambsquarters (Chenopodium album), oilseed rape (Brassica napus), pigweed (Amaranthus retroflexus), chamomile (scentless chamomile, Matricaria inodora), Russian thistle (Salsola kali), speedwell (bird's-eye speedwell, Veronica persica), barley, spring (spring barley, Hordeum vulgare), wheat, spring (spring wheat, Triticum aestivum), buckwheat, wild (wild buckwheat, Polygonum convolvulus), mustard, wild (wild mustard, Sinapis arvensis), oat, wild (wild oat, Avena fatua), radish, wild (wild radish, Raphanus raphanistrum), windgrass (Apera spica-venti), barley, winter (winter barley, Hordeum vulgare), and wheat, winter (winter wheat, Triticum aestivum) were planted into a silt loam soil and treated preemergence with test chemicals formulated in a non-phytotoxic solvent mixture which included a surfactant.
At the same time, these species were planted in pots containing Redi-Earth® planting medium (Scotts Company, 14111 Scottslawn Road, Marysville, Ohio 43041) comprising spaghnum peat moss, vermiculite, wetting agent and starter nutrients and treated with postemergence applications of the test chemicals formulated in the same manner. Plants ranged in height from 2 to 18 cm (1- to 4-leaf stage). Treated plants and controls were maintained in a controlled growth environment for 14 to 21 d after which time all species were compared to controls and visually evaluated. Plant response ratings, summarized in Table D, are based on a scale of 0 to 100 where 0 is no effect and 100 is complete control. A dash (-) response means no test result.

[2] = system: momingglory (Ipomoea coccinea); assay: Test E greenhouse herbicide test, pre- and postemergence; settings: Preemergence
Procedure, shortened: (§1)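 Visual ratings, 0 for no effect up to 100 for complete control, were taken relative to controls 14 to 21 d after greenhouse treatment. Applications used a surfactant-containing non-phytotoxic solvent formulation, sprayed either preemergence on silt loam-sown seed or postemergence on 1- to 4-leaf plants 2-18 cm tall in peat-based potting medium.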

[3] = system: nightshade (eastern black nightshade, Solanum ptycanthum); assay: as above; settings: Preemergence
Procedure, shortened: as §1

[4] = system: corn (Zea mays); assay: as above
Procedure, shortened: as §1

[5] = system: surinam grass (Brachiaria decumbens); assay: as above; settings: Preemergence
Procedure, shortened: as §1

[6] = system: arrowleaf sida (Sida rhombifolia); assay: as above
Procedure, shortened: as §1

[7] = system: pigweed, palmer (palmer pigweed, Amaranthus palmeri); assay: as above
Procedure, shortened: as §1

[8] = system: field bindweed (Convolvulus arvensis); assay: as above
Procedure, shortened: as §1

[9] = system: goosegrass (Eleusine indica); assay: as above; settings: Preemergence
Procedure, shortened: as §1

[10] = system: soybean (Glycine max); assay: as above
Procedure, shortened: as §1

[11] = 62 g ai/ha, scale 0 to 100 (0 no effect, 100 complete control)
[12] = 125 g ai/ha, scale 0 to 100 (0 no effect, 100 complete control)
[13] = 16 g ai/ha, scale 0 to 100, 0 no effect, 100 complete control
[14] = 31 g ai/ha, scale 0 to 100, 0 no effect, 100 complete control
[15] = 250 g ai/ha, visual, scale 0 no effect to 100 complete control
[16] = 62 g ai/ha, Postemergence, scale 0 to 100 (0 no effect, 100 complete control)
[17] = 62 g ai/ha, Preemergence, scale 0 to 100 (0 no effect, 100 complete control)
[18] = 125 g ai/ha, Postemergence, scale 0 to 100 (0 no effect, 100 complete control)
[19] = 250 g ai/ha, Postemergence, scale 0 to 100 (0 no effect, 100 complete control)
[20] = Postemergence, 16 g ai/ha, visual, scale 0 no effect to 100 complete control
[21] = Postemergence, 31 g ai/ha, visual, scale 0 no effect to 100 complete control
[22] = Preemergence, 16 g ai/ha, scale 0 to 100, 0 no effect, 100 complete control
[23] = Preemergence, 31 g ai/ha, scale 0 to 100, 0 no effect, 100 complete control
[24] = Preemergence, 125 g ai/ha, visual, scale 0 no effect to 100 complete control
[25] = Preemergence, 250 g ai/ha, visual, scale 0 no effect to 100 complete control
[26] = 125 g ai/ha, Preemergence, scale 0 to 100 (0 no effect, 100 complete control)

With `Cc1ccc2sc(C)c(-c3c(O)c(C)nn(C)c3=O)c2c1` [Compound 1, 4-(2,5-dimethylbenzo[b]thien-3-yl)-5-hydroxy-2,6-dimethyl-3(2H)-pyridazinone] the “Buckwheat, Wild plant response rating” value ([1]; Postemergence, 31 g ai/ha, scale 0 to 100 (0 no effect, 100 complete control)) was 70, the “Plant response rating, Buckwheat, Wild” value ([1]; Postemergence, 125 g ai/ha, visual rating on scale 0 (no effect) to 100 (complete control), 14 to 21 d) was 100 and the “Plant response rating, Buckwheat, Wild” value ([1]; Postemergence, 250 g ai/ha, scale 0 to 100 (0 no effect, 100 complete control)) was 100. The “Plant response rating (scale of 0 to 100), Buckwheat, Wild” value ([1]; Preemergence, 31 g ai/ha) was 5, the “Plant response rating, Buckwheat, Wild” value ([1]; Preemergence, 62 g ai/ha, scale 0 to 100 (0 no effect, 100 complete control)) was 10 and the “Plant response rating, Buckwheat, Wild” value ([1]; Preemergence, 125 g ai/ha, scale 0 to 100 (0 no effect, 100 complete control)) was 65. The “Plant response rating, Buckwheat, Wild” value ([1]; Preemergence, 250 g ai/ha, scale 0 to 100 (0 no effect, 100 complete control)) was 100, the “Plant response rating, Buckwheat, Wild” value ([1]; postemergence, 62 g ai/ha, scale 0 to 100, 0 no effect, 100 complete control) was 75 and the “Plant response rating, Morningglory” value [2, 11] was 98. The “Plant response rating, Morningglory” value [2, 12] was 90, the “Plant response rating, Morningglory” value [2, 13] was 20 and the “Plant response rating, Morningglory” value [2, 14] was 60. The “Plant response rating, Morningglory” value [2, 15] was 100, the “Plant response rating, Nightshade” value [3, 11] was 95 and the “Plant response rating, Nightshade” value [3, 12] was 100. The “Plant response rating, Nightshade” value [3, 13] was 80, the “Plant response rating, Nightshade” value [3, 14] was 90 and the “Plant response rating, Nightshade” value [3, 15] was 100. The “Plant response rating, Corn” value [4, 16] was 5, the “Plant response rating, Corn” value [4, 17] was 0 and the “Plant response rating, Corn” value [4, 18] was 5. For the same compound, the “Plant response rating, Corn” value [4, 19] was 5, the “Plant response rating, Corn” value [4, 20] was 0 and the “Plant response rating, Corn” value [4, 21] was 5. The “Plant response rating, Corn” value [4, 22] was 0, the “Plant response rating, Corn” value [4, 23] was 0 and the “Plant response rating, Corn” value [4, 24] was 0. For the same compound, the “Plant response rating, Corn” value [4, 25] was 0, the “Plant response rating, Surinam Grass” value [5, 11] was 50 and the “Plant response rating, Surinam Grass” value [5, 12] was 80. The “Plant response rating, Surinam Grass” value [5, 13] was 0, the “Plant response rating, Surinam Grass” value [5, 14] was 25 and the “Plant response rating, Surinam Grass” value [5, 15] was 75. For the same compound, the “Plant response rating, Arrowleaf Sida” value [6, 16] was 70, the “Plant response rating, Arrowleaf Sida” value [6, 17] was 65 and the “Plant response rating, Arrowleaf Sida” value [6, 18] was 70. For the same compound, the “Plant response rating, Arrowleaf Sida” value [6, 19] was 80, the “Plant response rating, Arrowleaf Sida” value [6, 20] was 30 and the “Plant response rating, Arrowleaf Sida” value [6, 21] was 50. The “Plant response rating, Arrowleaf Sida” value [6, 22] was 0, the “Plant response rating, Arrowleaf Sida” value [6, 23] was 0 and the “Plant response rating, Arrowleaf Sida” value [6, 24] was 75. The “Plant response rating, Arrowleaf Sida” value [6, 25] was 80, the “Plant response rating, Pigweed, Palmer” value [7, 16] was 90 and the “Plant response rating, Pigweed, Palmer” value [7, 17] was 100. For the same compound, the “Plant response rating, Pigweed, Palmer” value [7, 18] was 75, the “Plant response rating, Pigweed, Palmer” value [7, 26] was 100 and the “Plant response rating, Pigweed, Palmer” value [7, 19] was 98. For the same compound, the “Plant response rating, Pigweed, Palmer” value [7, 20] was 70, the “Plant response rating, Pigweed, Palmer” value [7, 21] was 20 and the “Plant response rating, Pigweed, Palmer” value [7, 22] was 20. For the same compound, the “Plant response rating, Pigweed, Palmer” value [7, 23] was 90, the “Plant response rating, Pigweed, Palmer” value [7, 25] was 100 and the “Plant response rating, Field Bindweed” value [8, 16] was 70. For the same compound, the “Plant response rating, Field Bindweed” value [8, 17] was 80, the “Plant response rating, Field Bindweed” value [8, 18] was 85 and the “Plant response rating, Field Bindweed” value [8, 19] was 95. For the same compound, the “Plant response rating, Field Bindweed” value [8, 20] was 65, the “Plant response rating, Field Bindweed” value [8, 21] was 65 and the “Plant response rating, Field Bindweed” value [8, 22] was 5. The “Plant response rating, Field Bindweed” value [8, 23] was 20, the “Plant response rating, Field Bindweed” value [8, 24] was 95 and the “Plant response rating, Field Bindweed” value [8, 25] was 100. For the same compound, the “Plant response rating, Goosegrass” value [9, 11] was 5, the “Plant response rating, Goosegrass” value [9, 13] was 0 and the “Plant response rating, Goosegrass” value [9, 14] was 15. The “Plant response rating, Goosegrass” value ([9]; 125 g ai/ha, visual, scale 0 no effect to 100 complete control) was 35, the “Plant response rating, Goosegrass” value [9, 15] was 25 and the “Plant response rating, Soybean” value [10, 16] was 10. For the same compound, the “Plant response rating, Soybean” value [10, 17] was 15, the “Plant response rating, Soybean” value [10, 18] was 15 and the “Plant response rating, Soybean” value [10, 26] was 40. For the same compound, the “Plant response rating, Soybean” value [10, 19] was 20, the “Plant response rating, Soybean” value [10, 20] was 0 and the “Plant response rating, Soybean” value [10, 21] was 0. For the same compound, the “Plant response rating, Soybean” value [10, 22] was 0, the “Plant response rating, Soybean” value [10, 23] was 0 and the “Plant response rating, Soybean” value [10, 25] was 75.
